The supplement of paper PMC8882468

Experiments:
Assay in all cases: CTG-3D luminescence at 96 h relative to day-0 seeding control (ratio to day 0); higher = more growth / less cytotoxicity
HCI-023 = tested on: HCI-023 (organoid from a triple-negative breast cancer xenograft)
Method: (§1)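 PDX-derived breast cancer organoids (PDxO) in 384-well Matrigel plates, 8-point dose (0.000000625-100 uM), 96 h at 37 C; CellTiter-Glo 3D luminescence normalised to the day-0 seeding control (mean of 4 technical replicates over mean of 4 day-0 wells).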

HCI-005.E2 = tested on: HCI-005.E2 (organoid from a breast cancer xenograft with a HER2-positive history)
Method: as §1

HCI-027 = tested on: HCI-027 (organoid from a triple-negative breast cancer xenograft)
Method: as §1

HCI-025 = tested on: HCI-025 (organoid from a breast cancer xenograft)
Method: as §1

HCI-017.E2 = tested on: HCI-017.E2 (organoid from an ER-positive breast cancer xenograft)
Method: as §1

HCI-019 = tested on: HCI-019 (organoid from a triple-negative breast cancer xenograft)
Method: as §1

HCI-010 = tested on: HCI-010 (organoid from a breast cancer xenograft)
Method: as §1

O=c1[nH]cc(F)c(=O)[nH]1 [5-fluorouracil]
CTG-3D luminescence at 96 h
Conditions	12.5 pM	0.00025 µM	0.005 µM	0.1 µM	1 µM	10 µM	100 µM	625 fM
HCI-010, days in culture: 52	2.25	2.58	2.49	2.66	2.42	2.48	1.51	2.55
HCI-010, days in culture: 65	1.67	1.68	1.87	1.73	1.83	1.73	1.18	1.66
HCI-010, days in culture: 103	3.85	3.56	3.46	3.56	3.17	2.42	2.1	3.28
HCI-017.E2, days in culture: 85	2.76	2.47	2.46	2.16	2.41	1.85	1.6	2.21
HCI-019, days in culture: 110	2.01	1.66	1.28	2.55	1.05	2.15	1.45	2.02
HCI-019, days in culture: 131	2.46	3.61	3.38	4.08	2.65	2.93	1.89	3.71
HCI-019, days in culture: 152	2.48	2.79	2.59	1.85	1.99	2.54	1.96	2.62
HCI-023, days in culture: 111	1.56	1.34	0.973	1.17	0.928	0.875	0.571	1.57
HCI-023, days in culture: 128	1.51	1.68	1.54	1.89	1.4	1.92	1.01	1.58
HCI-025, days in culture: 172	2.59	1.93	3.91	1.56	1.55	0.982	0.597	2.53
HCI-025, days in culture: 209	2.04	2.56	1.99	1.52	1.7	1.25	0.569	1.37
HCI-025, days in culture: 218	1.7	1.9	1.92	1.65	1.37	1.61	0.855	1.86
HCI-027, days in culture: 176	2.05	1.56	2.56	1.65	2.29	0.753	0.527	1.98
HCI-027, days in culture: 194	1.69	1.22	1.34	1.6	1.41	1.29	0.526	1.51
HCI-027, days in culture: 201	1.96	1.99	2.23	1.8	1.26	1.05	0.398	1.53

CTG-3D luminescence at 96 h
Conditions	12.5 pM	0.00025 µM	0.005 µM	0.1 µM	1 µM	10 µM	100 µM	625 fM
HCI-005.E2	1.91	1.66	1.64	2.48	1.78	1.18	0.891	1.69
HCI-017.E2	1.94	2.02	1.96	2.04	2.05	1.88	1.64	2.219
